Literature values in patent US20260284018A1, “DUAL INHIBITORS OF DYRK1A AND 5-HT2 FOR TREATING A BRAIN DISORDER” (THE REGENTS OF THE UNIVERSITY OF CALIFORNIA, priority 2023, published 2026).

Key:
Conditions in all cases: 10 μM; cited from earlier work
[1] = molecular target: T1, ABL1(E255K)-phosphorylated (Homo sapiens, UniProt P00519, E255K)
T1 construct: purchased Eurofins DiscoverX

ACVR1B = molecular target: T2, ACVR1B (Homo sapiens, UniProt P36896)
T2 construct: purchased Eurofins DiscoverX
T2 sequence (P36896 24-505): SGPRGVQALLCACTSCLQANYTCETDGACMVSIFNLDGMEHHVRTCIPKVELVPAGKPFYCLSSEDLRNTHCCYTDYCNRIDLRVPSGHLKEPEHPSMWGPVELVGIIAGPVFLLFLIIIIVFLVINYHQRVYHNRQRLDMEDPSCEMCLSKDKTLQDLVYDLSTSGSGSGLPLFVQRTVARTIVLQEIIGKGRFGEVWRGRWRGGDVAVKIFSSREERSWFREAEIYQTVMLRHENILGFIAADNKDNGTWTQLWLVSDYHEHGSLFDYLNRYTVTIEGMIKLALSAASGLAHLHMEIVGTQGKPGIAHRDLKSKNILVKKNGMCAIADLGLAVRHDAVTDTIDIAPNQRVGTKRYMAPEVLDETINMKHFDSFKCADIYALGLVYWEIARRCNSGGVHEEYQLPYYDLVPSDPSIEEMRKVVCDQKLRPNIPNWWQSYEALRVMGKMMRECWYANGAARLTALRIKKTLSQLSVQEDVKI

ADCK3 = molecular target: T3, ADCK3 (Homo sapiens, UniProt Q8NI60)
T3 construct: purchased Eurofins DiscoverX

AKT1 = molecular target: T4, AKT1 (Homo sapiens, UniProt P31749)
T4 construct: purchased Eurofins DiscoverX

AKT2 = molecular target: T5, AKT2 (Homo sapiens, UniProt P31751)
T5 construct: purchased Eurofins DiscoverX

ALK = molecular target: T6, ALK (Homo sapiens, UniProt Q9UM73)
T6 construct: purchased Eurofins DiscoverX

AXL = molecular target: T7, AXL (Homo sapiens, UniProt P30530)
T7 construct: purchased Eurofins DiscoverX

BMPR2 = molecular target: T8, BMPR2 (Homo sapiens, UniProt Q13873)
T8 construct: purchased Eurofins DiscoverX

BRAF(V600E) = molecular target: T9, BRAF(V600E) (Homo sapiens, UniProt P15056, V600E)
T9 construct: purchased Eurofins DiscoverX

CDK11 = molecular target: T10, CDK11 (Homo sapiens, UniProt Q9BWU1)
T10 construct: purchased Eurofins DiscoverX

CDK7 = molecular target: T11, CDK7 (Homo sapiens, UniProt P50613)
T11 construct: purchased Eurofins DiscoverX

CSNK1G2 = molecular target: T12, CSNK1G2 (Homo sapiens, UniProt P78368)
T12 construct: purchased Eurofins DiscoverX

EGFR = molecular target: T13, EGFR (Homo sapiens, UniProt P00533)
T13 construct: purchased Eurofins DiscoverX

EPHA2 = molecular target: T14, EPHA2 (Homo sapiens, UniProt P29317)
T14 construct: purchased Eurofins DiscoverX

ERK1 = molecular target: T15, ERK1 (Homo sapiens, UniProt P27361)
T15 construct: purchased Eurofins DiscoverX

FGFR2 = molecular target: T16, FGFR2 (Homo sapiens, UniProt P21802)
T16 construct: purchased Eurofins DiscoverX

FLT3 = molecular target: T17, FLT3 (Homo sapiens, UniProt P36888)
T17 construct: purchased Eurofins DiscoverX
T17 sequence (P36888 27-993): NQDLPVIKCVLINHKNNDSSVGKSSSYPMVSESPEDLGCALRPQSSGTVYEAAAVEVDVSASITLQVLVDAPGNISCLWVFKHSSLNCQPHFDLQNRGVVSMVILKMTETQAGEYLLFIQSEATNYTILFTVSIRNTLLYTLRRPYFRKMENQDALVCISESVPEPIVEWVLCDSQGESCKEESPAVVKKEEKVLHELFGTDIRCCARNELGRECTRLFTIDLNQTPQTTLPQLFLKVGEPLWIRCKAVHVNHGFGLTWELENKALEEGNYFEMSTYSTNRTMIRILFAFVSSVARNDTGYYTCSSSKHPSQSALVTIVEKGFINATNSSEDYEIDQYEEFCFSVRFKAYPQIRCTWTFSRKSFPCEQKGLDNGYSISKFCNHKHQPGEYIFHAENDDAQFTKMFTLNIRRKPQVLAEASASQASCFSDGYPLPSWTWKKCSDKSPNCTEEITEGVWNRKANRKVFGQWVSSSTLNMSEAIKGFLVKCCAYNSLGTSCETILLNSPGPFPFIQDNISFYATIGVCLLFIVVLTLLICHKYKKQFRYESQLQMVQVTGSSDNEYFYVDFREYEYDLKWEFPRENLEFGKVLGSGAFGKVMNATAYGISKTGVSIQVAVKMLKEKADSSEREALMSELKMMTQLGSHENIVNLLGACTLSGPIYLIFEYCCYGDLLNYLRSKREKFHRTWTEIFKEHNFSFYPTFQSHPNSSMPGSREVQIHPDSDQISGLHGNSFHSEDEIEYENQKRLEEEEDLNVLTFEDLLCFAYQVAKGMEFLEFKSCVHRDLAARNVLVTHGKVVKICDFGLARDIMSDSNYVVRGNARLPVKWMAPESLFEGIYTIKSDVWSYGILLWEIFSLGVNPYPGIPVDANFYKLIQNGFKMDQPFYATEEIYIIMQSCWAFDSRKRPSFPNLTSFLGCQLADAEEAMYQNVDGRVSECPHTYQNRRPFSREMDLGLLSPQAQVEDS

INSR = molecular target: T18, INSR (Homo sapiens, UniProt P06213)
T18 construct: purchased Eurofins DiscoverX
T18 sequence (P06213 28-1382): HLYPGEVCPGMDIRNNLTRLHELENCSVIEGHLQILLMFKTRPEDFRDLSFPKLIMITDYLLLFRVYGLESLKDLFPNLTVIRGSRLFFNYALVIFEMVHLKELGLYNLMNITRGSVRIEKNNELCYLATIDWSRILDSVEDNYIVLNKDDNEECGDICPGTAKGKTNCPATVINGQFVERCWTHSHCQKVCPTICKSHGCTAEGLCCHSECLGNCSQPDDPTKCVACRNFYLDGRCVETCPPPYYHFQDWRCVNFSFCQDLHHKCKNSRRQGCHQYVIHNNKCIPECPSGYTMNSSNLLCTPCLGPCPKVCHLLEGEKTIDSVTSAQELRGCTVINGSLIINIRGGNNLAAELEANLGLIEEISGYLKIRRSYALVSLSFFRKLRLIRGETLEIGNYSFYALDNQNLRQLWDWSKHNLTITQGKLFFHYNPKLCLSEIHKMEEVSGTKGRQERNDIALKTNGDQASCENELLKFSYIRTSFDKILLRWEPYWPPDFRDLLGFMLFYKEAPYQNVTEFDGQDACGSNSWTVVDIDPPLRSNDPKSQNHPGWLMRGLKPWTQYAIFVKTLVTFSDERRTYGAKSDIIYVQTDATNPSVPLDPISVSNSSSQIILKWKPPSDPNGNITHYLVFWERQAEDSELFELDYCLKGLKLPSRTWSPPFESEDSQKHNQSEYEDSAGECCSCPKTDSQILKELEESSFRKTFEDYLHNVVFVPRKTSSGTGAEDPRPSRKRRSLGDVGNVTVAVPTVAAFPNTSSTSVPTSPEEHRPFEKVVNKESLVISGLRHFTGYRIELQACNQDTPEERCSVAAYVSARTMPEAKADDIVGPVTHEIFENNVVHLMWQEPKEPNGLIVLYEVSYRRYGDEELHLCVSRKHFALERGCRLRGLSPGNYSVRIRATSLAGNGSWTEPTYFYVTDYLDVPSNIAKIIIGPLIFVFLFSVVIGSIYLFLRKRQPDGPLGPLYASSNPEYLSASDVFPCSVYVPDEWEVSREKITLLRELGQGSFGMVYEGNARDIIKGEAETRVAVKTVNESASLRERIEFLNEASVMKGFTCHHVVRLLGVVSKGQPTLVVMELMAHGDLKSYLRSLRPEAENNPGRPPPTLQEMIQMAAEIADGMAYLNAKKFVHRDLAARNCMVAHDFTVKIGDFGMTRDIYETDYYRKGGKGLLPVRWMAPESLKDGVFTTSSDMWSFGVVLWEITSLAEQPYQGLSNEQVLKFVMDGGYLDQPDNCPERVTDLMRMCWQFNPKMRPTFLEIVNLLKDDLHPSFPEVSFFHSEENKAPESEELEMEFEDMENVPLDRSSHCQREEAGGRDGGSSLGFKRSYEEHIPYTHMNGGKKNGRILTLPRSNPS

[2] = molecular target: T19, JAK2(JH1domain-catalytic) (Homo sapiens, UniProt O60674)
T19 construct: JAK2(JH1domain-catalytic); purchased Eurofins DiscoverX

[3] = molecular target: T20, JAK3(JH1domain-catalytic) (Homo sapiens, UniProt P52333)
T20 construct: JAK3(JH1domain-catalytic); purchased Eurofins DiscoverX

JNK1 = molecular target: T21, JNK1 (Homo sapiens, UniProt P45983)
T21 construct: purchased Eurofins DiscoverX

LKB1 = molecular target: T22, LKB1 (Homo sapiens, UniProt Q15831)
T22 construct: purchased Eurofins DiscoverX (KINOMEscan scanEDGE service)

MAP3K4 = molecular target: T23, MAP3K4 (Homo sapiens, UniProt Q9Y6R4)
T23 construct: purchased Eurofins DiscoverX (KINOMEscan scanEDGE service)

MAPKAPK2 = molecular target: T24, MAPKAPK2 (Homo sapiens, UniProt P49137)
T24 construct: purchased Eurofins DiscoverX (KINOMEscan scanEDGE service)
T24 sequence (P49137 whole entry): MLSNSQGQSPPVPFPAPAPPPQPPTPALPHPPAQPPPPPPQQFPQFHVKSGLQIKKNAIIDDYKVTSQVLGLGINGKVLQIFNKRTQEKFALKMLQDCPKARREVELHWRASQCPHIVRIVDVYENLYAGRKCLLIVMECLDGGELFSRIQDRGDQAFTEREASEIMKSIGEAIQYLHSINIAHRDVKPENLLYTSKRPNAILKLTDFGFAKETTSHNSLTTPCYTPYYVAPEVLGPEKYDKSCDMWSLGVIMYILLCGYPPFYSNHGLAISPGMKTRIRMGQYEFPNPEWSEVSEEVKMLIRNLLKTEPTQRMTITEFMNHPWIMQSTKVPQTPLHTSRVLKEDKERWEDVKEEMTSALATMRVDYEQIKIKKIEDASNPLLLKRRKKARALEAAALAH

MARK3 = molecular target: T25, MARK3 (Homo sapiens, UniProt P27448)
T25 construct: purchased Eurofins DiscoverX (KINOMEscan scanEDGE service)

MEK1 = molecular target: T26, MEK1 (Homo sapiens, UniProt Q02750)
T26 construct: purchased Eurofins DiscoverX (KINOMEscan scanEDGE service)

PAK1 = molecular target: T27, PAK1 (Homo sapiens, UniProt Q13153)
T27 construct: purchased Eurofins DiscoverX (KINOMEscan scanEDGE service)

PAK2 = molecular target: T28, PAK2 (Homo sapiens, UniProt Q13177)
T28 construct: purchased Eurofins DiscoverX (KINOMEscan scanEDGE service)

PDGFRB = molecular target: T29, PDGFRB (Homo sapiens, UniProt P09619)
T29 construct: purchased Eurofins DiscoverX (KINOMEscan scanEDGE service)

PDPK1 = molecular target: T30, PDPK1 (Homo sapiens, UniProt O15530)
T30 construct: purchased Eurofins DiscoverX (KINOMEscan scanEDGE service)

PIM1 = molecular target: T31, PIM1 (Homo sapiens, UniProt P11309)
T31 construct: purchased Eurofins DiscoverX (KINOMEscan scanEDGE service)
T31 sequence (P11309 whole entry): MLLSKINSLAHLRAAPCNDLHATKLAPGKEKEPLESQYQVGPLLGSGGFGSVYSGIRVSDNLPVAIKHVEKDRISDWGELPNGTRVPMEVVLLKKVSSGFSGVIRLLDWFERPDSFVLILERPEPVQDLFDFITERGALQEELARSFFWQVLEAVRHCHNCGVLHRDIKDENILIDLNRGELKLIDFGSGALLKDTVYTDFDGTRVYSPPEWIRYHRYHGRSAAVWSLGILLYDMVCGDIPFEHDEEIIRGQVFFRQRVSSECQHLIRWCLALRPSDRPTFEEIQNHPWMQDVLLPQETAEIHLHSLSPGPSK

PIM2 = molecular target: T32, PIM2 (Homo sapiens, UniProt Q9P1W9)
T32 construct: purchased Eurofins DiscoverX (KINOMEscan scanEDGE service)

PIM3 = molecular target: T33, PIM3 (Homo sapiens, UniProt Q86V86)
T33 construct: purchased Eurofins DiscoverX (KINOMEscan scanEDGE service)

PLK3 = molecular target: T34, PLK3 (Homo sapiens, UniProt Q9H4B4)
T34 construct: purchased Eurofins DiscoverX KINOMEscan scanEDGE

PLK4 = molecular target: T35, PLK4 (Homo sapiens, UniProt O00444)
T35 construct: purchased Eurofins DiscoverX KINOMEscan scanEDGE

[4] = molecular target: T36, RSK2(Kin.Dom.1-N-terminal) (Homo sapiens, UniProt P51812)
T36 construct: RSK2(Kin.Dom.1-N-terminal); purchased Eurofins DiscoverX KINOMEscan scanEDGE

TGFBR1 = molecular target: T37, TGFBR1 (Homo sapiens, UniProt P36897)
T37 construct: purchased Eurofins DiscoverX KINOMEscan scanEDGE

ULK2 = molecular target: T38, ULK2 (Homo sapiens, UniProt Q8IYT8)
T38 construct: purchased Eurofins DiscoverX KINOMEscan scanEDGE
T38 sequence (Q8IYT8 whole entry): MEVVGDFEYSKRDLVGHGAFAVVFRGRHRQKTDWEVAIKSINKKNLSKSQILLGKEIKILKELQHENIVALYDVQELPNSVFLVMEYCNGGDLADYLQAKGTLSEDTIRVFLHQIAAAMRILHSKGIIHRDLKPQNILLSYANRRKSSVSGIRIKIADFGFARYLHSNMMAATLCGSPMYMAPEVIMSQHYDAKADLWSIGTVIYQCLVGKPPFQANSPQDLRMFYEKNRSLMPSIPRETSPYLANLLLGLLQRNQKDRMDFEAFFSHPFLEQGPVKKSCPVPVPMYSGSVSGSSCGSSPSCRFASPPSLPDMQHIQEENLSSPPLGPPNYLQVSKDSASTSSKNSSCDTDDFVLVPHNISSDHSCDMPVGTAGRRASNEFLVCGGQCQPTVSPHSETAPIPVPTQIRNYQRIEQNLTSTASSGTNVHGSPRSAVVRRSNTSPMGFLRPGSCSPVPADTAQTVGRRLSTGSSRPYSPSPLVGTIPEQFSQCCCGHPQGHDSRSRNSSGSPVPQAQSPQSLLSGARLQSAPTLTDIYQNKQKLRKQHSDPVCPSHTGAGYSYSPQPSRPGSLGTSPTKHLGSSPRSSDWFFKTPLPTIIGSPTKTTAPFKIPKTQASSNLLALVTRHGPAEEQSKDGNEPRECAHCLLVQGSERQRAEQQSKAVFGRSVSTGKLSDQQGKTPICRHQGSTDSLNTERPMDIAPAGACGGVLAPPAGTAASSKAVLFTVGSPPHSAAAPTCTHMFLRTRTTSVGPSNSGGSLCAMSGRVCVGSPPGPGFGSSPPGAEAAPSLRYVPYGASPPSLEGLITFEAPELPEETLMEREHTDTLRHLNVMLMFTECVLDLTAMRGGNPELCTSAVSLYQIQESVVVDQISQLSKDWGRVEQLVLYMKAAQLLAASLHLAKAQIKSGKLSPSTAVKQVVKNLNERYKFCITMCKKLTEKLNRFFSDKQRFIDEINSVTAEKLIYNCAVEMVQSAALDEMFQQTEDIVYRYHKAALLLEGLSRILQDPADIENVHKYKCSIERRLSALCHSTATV

YANK3 = molecular target: T39, YANK3 (Homo sapiens, UniProt Q86UX6)
T39 construct: purchased Eurofins DiscoverX KINOMEscan scanEDGE
T39 sequence (Q86UX6 whole entry): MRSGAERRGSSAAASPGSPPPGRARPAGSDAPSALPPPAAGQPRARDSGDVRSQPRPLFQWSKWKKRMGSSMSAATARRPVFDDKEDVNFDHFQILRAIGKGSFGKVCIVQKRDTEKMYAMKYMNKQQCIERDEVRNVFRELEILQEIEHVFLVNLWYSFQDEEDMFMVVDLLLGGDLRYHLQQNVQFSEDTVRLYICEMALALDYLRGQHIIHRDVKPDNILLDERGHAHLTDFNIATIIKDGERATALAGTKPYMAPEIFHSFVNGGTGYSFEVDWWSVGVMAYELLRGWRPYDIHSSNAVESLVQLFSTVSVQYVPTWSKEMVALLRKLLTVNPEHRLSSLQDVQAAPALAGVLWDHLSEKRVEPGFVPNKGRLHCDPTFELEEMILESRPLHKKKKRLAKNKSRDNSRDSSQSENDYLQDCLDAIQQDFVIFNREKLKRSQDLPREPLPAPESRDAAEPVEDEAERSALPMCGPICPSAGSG

COc1ccc2c(c1)[nH]c1c(C)nccc12 [Harmine, harmine]
Percent Control [1]: 74%
Percent Control (ACVR1B): 91%
Percent Control (ADCK3): 88%
Percent Control (AKT1): 96%
Percent Control (AKT2): 80%
Percent Control (ALK): 92%
Percent Control (AXL): 82%
Percent Control (BMPR2): 96%
Percent Control (BRAF(V600E)): 90%
Percent Control (CDK11): 83%
Percent Control (CDK7): 21%
Percent Control (CSNK1G2): 19%
Percent Control (EGFR): 96%
Percent Control (EPHA2): 93%
Percent Control (ERK1): 99%
Percent Control (FGFR2): 91%
Percent Control (FLT3): 85%
Percent Control (INSR): 100%
Percent Control [2]: 92%
Percent Control [3]: 61%
Percent Control (JNK1): 41%
Percent Control (LKB1): 91%
Percent Control (MAP3K4): 93%
Percent Control (MAPKAPK2): 72%
Percent Control (MARK3): 91%
Percent Control (MEK1): 79%
Percent Control (PAK1): 73%
Percent Control (PAK2): 47%
Percent Control (PDGFRB): 84%
Percent Control (PDPK1): 100%
Percent Control (PIM1): 45%
Percent Control (PIM2): 39%
Percent Control (PIM3): 43%
Percent Control (PLK3): 75%
Percent Control (PLK4): 77%
Percent Control [4]: 72%
Percent Control (TGFBR1): 91%
Percent Control (ULK2): 89%
Percent Control (YANK3): 77%
